# Measurements: patent US20050163876A1, “Cancer treatment using natural plant products or essential oils or components from some pistacia species” (DATA MEDICA PADOVA S.p.A., priority 2003, published 2005)
# Tests used:
# [1] = tested on: LoVo cells; experiment: Pearson correlation between oil components and cytotoxic activity; parameters: species or system human; settings: P. lentiscus oils / LoVo cells
# Protocol: The Pearson correlation and linear regression analyzes between the oil components and biological activity was also determined. To the scope all data were collected in a data base and analysed by the GraphPad Prism Version 3.0 statistical software to identify substances directly responsible of biological activity.
# [2] = tested on: transplanted hamster pancreatic tumors; settings: cited from earlier work
Structure (SMILES),Pearson correlation r between oil component and cytotoxic activity [1],growth of transplanted tumors relative to controls [2]
CC(=O)OC1CC2CCC1(C)C2(C)C (stereo not shown) [Bornyl Acetate],0.8693,
C=C1CC[C@H]2O[C@]2(C)CC[C@@H]2[C@@H]1CC2(C)C [Caryophyllene Oxide],0.8355,
"Cc1ccc(C(C)C)cc1 [Para cymene, Para Cymene]",−0.8621,
C=C(C)[C@@H]1CC=C(CO)CC1 [perillyl alcohol],,less than half that of controls
